Test results published in ChEMBL document CHEMBL1159147, “4-(2-PYRTOYL)-5-phenylthiazoles as novel non-bicyclic reversible inhibitors of the gastric H+/K+-atpase” (Bioorg Med Chem Lett, 1995).
Each block holds one compound with its values, some of them ahead of it.

How the values were obtained:
[1] = tested on: Rattus norvegicus; assay: Compound was tested in vivo for its ability to inhibit pentagastrin-stimulated gastric acid secretion in the anesthetized lumen perfused rat at 10 umol/kg iv; insoluble; format: functional, organism-based; details: Stomach
[2] = biological target: Potassium-transporting ATPase alpha chain 1 (Sus scrofa) (UniProt P19156); assay: Ability to inhibit H+/K+ stimulated ATPase activity in lympholised gastric vesicles at 100 uM concentration; format: tissue-based; details: Stomach
[3] = biological target: Potassium-transporting ATPase alpha chain 1 (Sus scrofa) (UniProt P19156); assay: Ability to inhibit H+/K+ stimulated ATPase activity in lympholised gastric vesicles at 30 uM concentration; format: tissue-based; details: Stomach
[4] = tested on: CCCc1nc(-c2cc(N)ccn2)c(-c2ccccc2C)s1; assay: Km was determined
[5] = tested on: CCCc1nc(-c2cc(N)ccn2)c(-c2ccccc2C)s1; assay: Vmax was determined

Chain of Potassium-transporting ATPase alpha chain 1 (Sus scrofa) (P19156 whole entry): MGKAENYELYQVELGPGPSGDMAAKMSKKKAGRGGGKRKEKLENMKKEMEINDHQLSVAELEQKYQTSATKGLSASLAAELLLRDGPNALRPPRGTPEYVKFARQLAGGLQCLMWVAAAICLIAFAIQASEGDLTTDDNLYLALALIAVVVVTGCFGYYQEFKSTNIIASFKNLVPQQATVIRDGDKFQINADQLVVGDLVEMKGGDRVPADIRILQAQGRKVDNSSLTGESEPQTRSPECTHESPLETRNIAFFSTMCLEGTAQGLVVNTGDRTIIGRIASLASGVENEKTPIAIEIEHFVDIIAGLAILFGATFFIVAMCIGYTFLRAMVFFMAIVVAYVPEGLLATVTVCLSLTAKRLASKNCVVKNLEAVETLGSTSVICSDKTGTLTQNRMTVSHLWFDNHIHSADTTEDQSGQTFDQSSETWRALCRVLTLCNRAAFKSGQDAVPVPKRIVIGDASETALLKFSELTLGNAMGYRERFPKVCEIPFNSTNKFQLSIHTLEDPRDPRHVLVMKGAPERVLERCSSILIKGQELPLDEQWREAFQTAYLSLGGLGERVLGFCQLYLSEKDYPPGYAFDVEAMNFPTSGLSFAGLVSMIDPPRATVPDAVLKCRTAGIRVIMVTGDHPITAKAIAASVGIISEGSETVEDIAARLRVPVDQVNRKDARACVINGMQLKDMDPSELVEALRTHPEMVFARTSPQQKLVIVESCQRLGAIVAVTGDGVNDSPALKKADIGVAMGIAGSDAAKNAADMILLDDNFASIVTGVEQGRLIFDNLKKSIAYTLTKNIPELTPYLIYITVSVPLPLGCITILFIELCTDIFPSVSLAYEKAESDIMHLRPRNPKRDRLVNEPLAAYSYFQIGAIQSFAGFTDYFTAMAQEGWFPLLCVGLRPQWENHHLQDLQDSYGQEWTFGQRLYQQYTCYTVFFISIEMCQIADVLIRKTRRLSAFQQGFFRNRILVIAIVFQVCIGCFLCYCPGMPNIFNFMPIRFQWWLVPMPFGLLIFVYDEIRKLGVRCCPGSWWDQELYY
Chain of Potassium-transporting ATPase alpha chain 1 (Sus scrofa), P19156 (P19156 whole entry): as above

Compound: Cc1ccccc1-c1nc(-c2ccccn2)c(-c2ccccc2C)s1
inhibition [1]: Insoluble

Compound: Potassium-transporting ATPase alpha chain 1 (Sus scrofa), P19156
Km [4]: 560 µM | Vmax [5]: 0.636 IU mg-1

Other lines, results leading:

inhibition [2]: 48%
Compound: Cc1nc(-c2ccccn2)c(-c2ccccc2C)s1

inhibition [3]: 23%
Compound: CCCc1ncc(-c2ccccc2C)c(-c2ccccn2)n1

inhibition [2]: 67%
Compound: CCCc1nc(-c2ccccc2C)c(-c2ccccn2)[nH]1
